One may read the IC50 as the concentration that gives 50% inhibition.

Test [1] concerns HepG2 cells (hepatocellular carcinoma). Kind of test: MTT cytotoxicity assay, HepG2. Type of test: cell-based. Particulars: Homo sapiens, HepG2, 24 h, 24 h treatment, read-out: In Vitro Cytotoxicity IC50 HepG2. The source says:
(§1) The in vitro cytotoxicity for the final target compounds, 4(a–d), 5(a–f), and 6(a–b), was preliminarily evaluated via the MTT colorimetric assay against a panel of four human cell lines, namely, the hepatocellular carcinoma (HepG2), mammary gland (MCF-7), breast cancer (MDA-MB-231) and epithelioid cervix carcinoma (HeLa).
(§2) The cytotoxicity of the target hybrids was examined by an MTT assay against HepG2, HeLa, MCF-7, and MDA-MB-231. At first, the RPMI-1640 medium with 10% fetal bovine serum was used to cultivate the cell lines. Then, antibiotics (penicillin (100 units/mL) and streptomycin (100 µg/mL)) were added in a 37 °C incubator in 5% CO2. The cell lines were seeded in a 96-well plate at a density of 1.0 × 10^4 cells/well at 37 °C under 5% CO2 for 48 h. After incubation, the cells were treated with various concentrations of the synthesized compounds and incubated for an additional 24 h. Following the drug treatment, 20 µL of 5 mg/mL MTT solution was added and incubated for 4 h. To dissolve the purple formazan that had formed, 100 µL dimethyl sulfoxide (DMSO) was added to each well. At a wavelength of 570 nm, the colorimetric assay was recorded and measured, using a plate reader BioTek EXL 800 (Agilent Technologies, Inc., Santa Clara, CA, USA). The percentage of relative cell viability was counted using the following formula (A570 of handled specimens/A570 of the unhandled specimen), multiplied by 100. The results of the cytotoxicity value were presented as the median growth inhibitory concentration (IC50) of the reagents compared to the control.

The subject of test [2] is MDA-MB-231 cells (breast cancer). Kind of test: MTT cytotoxicity assay, MDA-MB-231. Type of test: cell-based. The note with it: Homo sapiens, 24 h treatment, read-out: In Vitro Cytotoxicity IC50 MDA-MB-231. On the procedure:
(§3) After incubation, the cells were treated with various concentrations of the synthesized compounds and incubated for an additional 24 h. Following the drug treatment, 20 µL of 5 mg/mL MTT solution was added and incubated for 4 h. To dissolve the purple formazan that had formed, 100 µL dimethyl sulfoxide (DMSO) was added to each well. […] The percentage of relative cell viability was counted using the following formula (A570 of handled specimens/A570 of the unhandled specimen), multiplied by 100.
In general terms: Tetrazolium assays rely on reduction of a dye to a coloured formazan, in cell work by metabolically active cells.

The subject of test [3] is HeLa cells (epithelioid cervix carcinoma). Kind of test: MTT cytotoxicity assay, HeLa. Type of test: cell-based. The note with it: Homo sapiens, 24 h treatment, read-out: In Vitro Cytotoxicity IC50 Hela. On the procedure:
as §3

Test [4] deals with HepG2, MCF-7, MDA-MB-231 and HeLa cell lines. Kind of test: MTT cytotoxicity assay, panel of four cell lines. Type of test: cell-based. Particulars: Homo sapiens, range over HepG2, MCF-7, MDA-MB-231, HeLa, read-out: IC50 values, range over the tested cell lines.
Source text: as §1, §2

In test [5] the target is T1, Human CDK2 (Homo sapiens, UniProt P24941).
T1 construct: purchased
Kind of test: In vitro CDK2 enzyme assay (ELISA kit). Type of test: biochemical. On the procedure:
Human CDK2, EGFR, HER2, and VEGFR-2 ELISA kits (Enzyme-Linked-Immunosorbent Serologic Assay) were used during this evaluation. At first, specified antibody proteins were added separately to a 96-well plate, then 0.1 mL of the standard solution or the evaluated molecule was added; these were then incubated for 2.5 h at RT. After rinsing, 100 μL of the ready-made biotin antibody protein was added, then incubated for one extra hour at room temperature and, finally, washed. Next, 100 μL of streptavidin solution was added, incubated at room temperature for 45 min, and then washed. Next, 100 μL of the TMB substrate reagent was added and incubated for 0.5 h at RT, followed by adding 50 μL of the stop solution. The absorbance of the ELISA plate was promptly measured at 450 nm using the ELISA plate reader.
For orientation: In an ELISA, binding on a coated surface is turned into a signal by an enzyme label.

Test [6] has as its system Bcl-2. The test is described as follows: Apoptosis-related proteins in HepG2 cells (ELISA), Bcl-2. Type of test: cell-based, human. From the text: Compound 6b was selected to investigate the apoptotic markers against the liver cancer cell line (HepG2). […] Typically, Bax, Bcl-2, and caspases contribute to the regulation of apoptotic signaling. Acting as an apoptotic activator (Bax) or inhibitor (Bcl-2), the Bcl-2 family of proteins plays a significant role in apoptosis. The caspase family comprises cysteine proteases that are classified as either executioner—caspase-3, or as initiators—caspase-9 and caspase-8 [40]. […] Nevertheless, considerable downregulation of the anti-apoptotic gene, Bcl-2 (0.26 folds), was described, leading to an increased expression ratio of Bax/Bcl-2 (1→20.53). The Bax/Bcl-2 gene expression ratio can serve as an early predictor for cancer in patients and is a sensitive monitor of cancer progression. […]
The HepG2 cells were incubated in 96-well plates in triplicates and left for 24 h. […] The treated cells, along with control cells, were then incubated for another 24 h; then, caspases-3 and 9, BAX, and Bcl-2 levels were determined using ELISA assay kits; KHO1091 (Invitrogen^TM, Grand Island, NY, USA), EIA-4860 (DRU International, Inc., Mountainside, NJ, USA), EIA-4487 (DRU International INC., Mountainside, NJ, USA) and 99–0042 (Invitrogen^TM, Grand Island, NY, USA), respectively, according to their manufacturers’ procedures.

For test [7], the system named is HepG2 cells. The test is described as follows: Cell-cycle flow cytometry analysis (PI staining). Type of test: cell-based, human. Particulars: HepG2, 6b at 6.83 μM, 24 h. On the procedure:
Programmed cell death is a fundamental cellular program that is inherent in every cell of the human body. One of the most extensively studied forms of programmed cell death is apoptosis, which plays an important role during the various physiological processes and is involved in a variety of pathological conditions. The HepG2 cells were exposed to compound 6b for 24 h and the cell cycle was monitored via flow cytometry; the results are reported in Table 5.
To detect the effect of the synthesized compound, 6b, on cell cycle distribution, flow cytometry analysis was carried out, utilizing propidium iodide (PI) staining. The kit used for the cell cycle flow cytometry analysis was the K101-100 Annexin V-FITC Apoptosis Detection Kit (BioVision, Mountain View, CA, USA). […] Then, the treated cells were fixed in 70% ethanol for 12 h at 4 °C. Following that, the cells were rinsed with cold PBS, incubated with 100 μL RNase A for 0.5 h at 37 °C, and stained with propidium iodide (400 μL) in the dark at RT for an extra 0.5 h. The stained cells were determined, utilizing Epics XLMCL™ flow cytometer equipment (Beckman Coulter, Apeldoorn, Netherlands), then the results were collected and analyzed with the Flowing software (version 2.5.1, Turku Center for Biotechnology, Turku, Finland).

With `O=C(CSc1nc2ccccc2o1)NN=Cc1ccc[nH]1` (mixture of isomers) [Compound 6b, (E/Z)-N′-((1H-pyrrol-2-yl)methylene)-2-(benzo[d]oxazol-2-ylthio)acetohydrazide], the concentration for half-maximal inhibition (IC50) in test [1] is roughly 6.83 µM; in test [2], 2.14 ± 0.1 µM; in test [3], 5.18 ± 0.5 µM; in test [4], 2.14 to 19.3 µM; in test [5], 0.886 ± 0.046 µM. Further, in test [6] (24 h treatment, ELISA), the “Bcl-2 Expression” value is 2.822 ± 0.21 pg/mL. The “Bcl-2 Fold” value in test [6] (versus control HepG2 = 1) is 0.26 fold. For the same compound, the “%G0–G1” value in test [7] is 40.37%. Moreover, the “%G2/M” value in test [7] was found to be 31.26%. The “%Pre–G1” value in test [7] turned out to be 16.84%. Moreover, the “%S” value in test [7] is listed as 28.37%.

The values above are taken from PMC9863562, “Design, Synthesis, and Biological Evaluation of 2-Mercaptobenzoxazole Derivatives as Potential Multi-Kinase Inhibitors” (Pharmaceuticals, 2023).
